ChEMBL document CHEMBL1126496, “4-Aminomethyl chromans: dependence of serotonin and dopamine binding upon aromatic ring substitution” (Bioorg Med Chem Lett, 1993)

Experiments:
[1] = molecular target: T1, 5-hydroxytryptamine receptor 1A (Homo sapiens, UniProt P08908); experiment: Compound was tested for its binding affinity against 5-hydroxytryptamine 1A receptor using [3H]8-OH-DPAT radioligand
T1 sequence (P08908 whole entry): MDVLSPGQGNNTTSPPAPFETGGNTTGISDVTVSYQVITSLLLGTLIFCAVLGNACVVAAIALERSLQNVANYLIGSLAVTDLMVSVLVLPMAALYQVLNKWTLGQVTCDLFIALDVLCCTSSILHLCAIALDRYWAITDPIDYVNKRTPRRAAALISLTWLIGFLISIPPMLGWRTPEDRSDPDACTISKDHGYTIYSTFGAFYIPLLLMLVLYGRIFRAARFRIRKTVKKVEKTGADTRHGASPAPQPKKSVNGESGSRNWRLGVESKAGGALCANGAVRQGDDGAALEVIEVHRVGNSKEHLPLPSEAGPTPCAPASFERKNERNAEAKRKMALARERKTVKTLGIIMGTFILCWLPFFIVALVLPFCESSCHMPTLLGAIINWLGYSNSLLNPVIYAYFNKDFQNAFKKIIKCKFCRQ

D(2) dopamine receptor = D(2) dopamine receptor (Rattus norvegicus, UniProt P61169); experiment: Compound was tested for its binding affinity against Dopamine receptor D2 using [3H]raclopride radioligand
D(2) dopamine receptor, sequence (P61169 whole entry): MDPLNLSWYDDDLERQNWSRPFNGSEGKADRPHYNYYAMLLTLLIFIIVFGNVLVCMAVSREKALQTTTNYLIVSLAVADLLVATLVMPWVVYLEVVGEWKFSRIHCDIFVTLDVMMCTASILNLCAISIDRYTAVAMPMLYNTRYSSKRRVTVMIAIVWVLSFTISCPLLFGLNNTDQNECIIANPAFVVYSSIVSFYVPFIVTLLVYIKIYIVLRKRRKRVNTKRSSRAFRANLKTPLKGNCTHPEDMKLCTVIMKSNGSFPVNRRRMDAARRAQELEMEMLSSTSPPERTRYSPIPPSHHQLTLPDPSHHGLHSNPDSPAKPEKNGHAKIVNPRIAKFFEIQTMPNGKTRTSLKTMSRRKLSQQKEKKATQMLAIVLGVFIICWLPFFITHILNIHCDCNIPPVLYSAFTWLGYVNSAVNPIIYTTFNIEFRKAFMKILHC

Row | SMILES | Ki [1] [nM] | Ki (D(2) dopamine receptor) [nM]
1 | COc1ccc2c(c1)C(CN1CCC3(CC1)C(=O)NCN3c1ccccc1)CCO2 (stereo unspecified) | 247 | 164
2 | COc1cccc2c1OCCC2CNCCCc1ccccc1 (stereo unspecified) | 7 | 620
3 | COc1ccc2c(c1)C(CNCCCc1ccccc1)CCO2 (stereo unspecified) | 93 | > 1000
4 | COc1cccc2c1C(CNCCCc1ccccc1)CCO2 (stereo unspecified) | > 1000 | 279
5 | COc1ccc2c(c1)OCCC2CN1CCC2(CC1)C(=O)NCN2c1ccccc1 (stereo unspecified) | 611 | 274
6 | COc1ccc2c(c1)OCCC2CNCCCc1ccccc1 (stereo unspecified) | 28 | > 1000
7 | COc1cccc2c1OCCC2CN1CCC2(CC1)C(=O)NCN2c1ccccc1 (stereo unspecified) | > 1000 | > 1000
8 | COc1cccc2c1C(CN1CCC3(CC1)C(=O)NCN3c1ccccc1)CCO2 (stereo unspecified) | 12 | 29
